Assay results from patent US20220401483A1, “COMBINATION OF A T CELL THERAPY AND (S)-3-[4-(4-MORPHOLIN-4-YLMETHYL-BENZYLOXY)-L-OXO-L,3-DIHYDRO-ISOINDOL-2-YL]-PIPERIDINE-2,6-DIONE” (Juno Therapeutics, Inc., priority 2019, published 2022).

Legend:
Format in all cases: cell-based, human
[1] = tested on: RL cells; test: Rescue of chronically stimulated CAR T cells cultured with RL cells; conditions: Compound B 1 μM, Compound A 0.001, 0.01 or 0.1 μM
Experimental: The RL cells were further used to assess the ability of immunomodulatory compounds to rescue or reverse the anti-CD19 CAR T cells from exhaustion. Anti-CD19 CAR-expressing T cells were stimulated under conditions to induce chronic stimulation and then were subsequently treated (rescue) with Compound B (1 μM) or Compound A (0.001 μM, 0.01 μM or 0.1 μM), or a vehicle control. Long-term, chronic stimulation was carried out by stimulation of CAR T cells with 30 μg/mL plate-bound anti-idiotypic (anti-ID) antibody for 6 days, substantially as described in Example 3. After the chronic stimulation, the CAR-T cells were cultured with RL cells in the presence of Compound B or Compound A. Cytolytic activity was assessed over time by measuring tumor cell number in the culture.

[2] = tested on: K562.CD19, Raji, Granta-519 cells; test: Cytolytic activity of chronically stimulated CAR T cells with rescue treatment, CD19+ tumor cells; conditions: 0.001 μM or 0.01 μM, E:T 1:1, vs control
Experimental: Anti-CD19 CAR-expressing T cells from three donors, produced as described in Example 1, were stimulated under conditions to induce chronic stimulation (to produce hypofunctional, exhausted T cells) and then were subsequently treated (rescue) with (S)-3-[4-(4-morpholin-4-ylmethyl-benzyloxy)-1-oxo-1,3-dihydro-isoindol-2-yl]-piperidine-2,6-dione (Compound A), or a vehicle control. Long-term, chronic stimulation was carried out by stimulation of CAR T cells with 30 μg/mL plate-bound anti-idiotypic (anti-ID) antibody for 6 days, substantially as described in Example 3 but in the absence of Compound A. After the chronic stimulation, the CAR-T cells were rechallenged with CD19-expressing target cells in the presence of Compound A, and cytolytic activity or cytokine production was assessed.
CAR T cells that had been stimulated for 6 days with anti-ID were co-cultured with CD19+ tumor cells at an effector to target (E:T) ratio of 1:1, in the presence of Compound A (0.001 μM or 0.01 μM). The assessed CD19+ tumor cells included K562 cells transduced with CD19 (K562.CD19), Raji cells or Granta-519 cells.

[3] = tested on: RL tumor spheroids; test: RL tumor spheroid model with anti-CD19 CAR T cells; conditions: Day 4; 1 μM Compound B, 0.01 μM or 0.1 μM Compound A
Experimental: Cytolytic activity was also assessed in a spheroid model. About 5,000 RL cells were plated 48 hours prior to addition of 5,000 anti-CD19 CAR T cells (1:1 E:T ratio). Anti-CD19 CAR T cells were co-cultured with RL tumor spheroids, in the presence of Compound B (1 μM) or Compound A (0.001 μM, 0.01 μM or 0.1 μM)).

[4] = tested on: Granta-519 tumor spheroids; test: Spheroid tumor growth assay after chronic stimulation with concurrent treatment
Experimental: CAR T cells that had been stimulated for 6 days with anti-ID concurrently in the presence of Compound A (0.001 μM or 0.01 μM) were co-cultured with by incubation with Granta-519 tumor spheroids, and CAR T cell cytolytic function and cytokine function were assessed at various time points. For comparison, cytolytic activity was also assessed for cells that had been similarly chronically stimulated with anti-ID in the presence of 1 μM or 0.1 μM Compound B. Averaged measurement of tumor spheroid size at various times following co-culture with CAR-T cells was monitored.
Cytokines (IFNγ, IL-2 and TNFalpha) were measured from supernatant of the chronically stimulated CAR T cells above that had been co-cultured for 5 days with CD19 tumor spheroids. The log 2 fold change compared to control cells (chronically stimulated cells that had not been concurrently treated with Compound A immunomodulatory compound) is shown in FIG. 3F.

[5] = tested on: K562.CD19, Raji, Granta-519 cells; test: Cytolytic activity of CAR T cells after chronic stimulation with concurrent treatment, rechallenge with CD19+ tumor cells; conditions: 0.001 μM or 0.01 μM, E:T 1:1, vs control
Experimental: Anti-CD19 CAR-expressing T cells were produced substantially as described in Example 1. To subject cells to chronic stimulation conditions, the CAR+ T cells were stimulated with 30 μg/mL plate-bound anti-idiotypic (anti-ID) antibody (see e.g. WO2018/023100) for 6 days in the presence of (S)-3-[4-(4-morpholin-4-ylmethyl-benzyloxy)-1-oxo-1,3-dihydro-isoindol-2-yl]-piperidine-2,6-dione (Compound A) or a vehicle control, to induce chronic stimulation. After the 6-day culture period, the anti-CD19 CAR-expressing T cells were removed from culture and incubated with K562 cells transduced with CD19 (K562.CD19), Raji tumor cells, and Granta-519 tumor cells (to rechallenge the CAR-T cells) at an effector to target ratio of 2.5:1 unless otherwise indicated, in the presence of Compound A, at concentrations ranging from 0.001 μM to 10 μM, or vehicle control for up to 10 days. […] Cells were assessed at various times for cytolytic function, CAR T cell number and cytokine production.
CAR T cells that had been stimulated for 6 days with anti-ID concurrently in the presence of Compound A (0.001 μM or 0.01 μM) were washed free of compound and co-cultured with CD19+ tumor cells at an effector to target (E:T) ratio of 1:1 in the absence of Compound A. The assessed CD19+ tumor cells included K562 cells transduced with CD19 (K562.CD19), Raji cells, or Granta-519 cells.

[6] = tested on: Ikaros; test: Ikaros expression in chronically stimulated CAR T cells with concurrent treatment; conditions: 100 nM
Experimental: Anti-CD19 CAR-expressing T cells were produced substantially as described in Example 1. To subject cells to chronic stimulation conditions, the CAR+ T cells were stimulated with 30 μg/mL plate-bound anti-idiotypic (anti-ID) antibody (see e.g. WO2018/023100) for 6 days in the presence of (S)-3-[4-(4-morpholin-4-ylmethyl-benzyloxy)-1-oxo-1,3-dihydro-isoindol-2-yl]-piperidine-2,6-dione (Compound A) or a vehicle control, to induce chronic stimulation. […] Cells were assessed at various times for cytolytic function, CAR T cell number and cytokine production.
After the long-term, chronic stimulation with concurrent treatment with Compound A, CAR T cells were assessed for Ikaros expression or for CAR T function following rechallenge with CD19-expressing target cells.
Expression of Ikaros in CAR T cells that had been subjected to chronic stimulation in the presence of Compound A (1 nM, 10 nM or 100 nM) was measured by intracellular flow cytometry analysis using an antibody to Ikaros.

[7] = tested on: anti-CD19 CAR T cells; test: RNA-seq gene expression of anti-CD19 CAR T cells sorted from tumor spheroids
Experimental: Gene expression analysis of anti-CD19 CAR T cells sorted from tumor spheroids 5 days after co-culture as described above was analyzed by RNA sequencing (RNA-seq) on the complementary DNA (cDNA) samples prepared from the RNA isolated from the long-term stimulated CAR-expressing T cells or on CAR-expressing T cells that had not undergone the long-term stimulation. Libraries for RNA-seq were sequenced on Illumina NextSeq system. Reads were mapped to the human reference genome GRCh38, and gene expression levels were quantified in Array Studio. Differential expression (DE, for RNA-seq) analysis was performed using DESeq2.
The dots on the top left quadrant represent genes induced by chronic stimulation and the dots on the lower right quadrant represent genes reversed by Compound A.
Pathway enrichment analysis of the differentially expressed genes were performed using clusterProfiler.
Gene expression analysis by RNA-seq was carried out substantially as described in Example 3.

O=C1CC[C@H](N2Cc3c(OCc4ccc(CN5CCOCC5)cc4)cccc3C2=O)C(=O)N1 [Compound A, (S)-3-[4-(4-morpholin-4-ylmethyl-benzyloxy)-1-oxo-1,3-dihydro-isoindol-2-yl]-piperidine-2,6-dione]
CAR T cell cytolytic activity, RL cell growth [1]: substantially improved
cytolytic activity (tumor cell number over time) [2]: statistically significant improvement
sensitivity of RL tumor spheroids to compound [3]: sensitive
cytolytic function, average tumor volume after 9 days [4]: significantly increased cytolytic function
cytolytic function, Granta-519 spheroid growth ([4]; 0.001 μM or 0.01 μM): improved cytolytic function
IFNγ in co-culture supernatant ([4]; 5 days co-culture with spheroids): statistically significant increase
improvement in cytolytic function compared with Compound B ([4]; Compound B 1 μM or 0.1 μM): greater
cytolytic activity (tumor cell number over time) [5]: improved
Ikaros expression in chronically stimulated cells [6]: reduction of Ikaros expression was maintained
expression changes in genes of T cell function pathways after chronic stimulation ([7]; concurrent treatment): can be reversed
expression changes in genes of T cell function pathways after chronic stimulation ([7]; rescue treatment): can also be reversed
